# Calls of active or inactive are those of the source. The rule behind the calls is not given here.
# Columns and labels:
# [1] = tested on: Acinetobacter baumannii; test: Potentiation of clarithromycin-induced antibacterial activity against Acinetobacter baumannii AB5075 assessed as clarithromycin MIC at 10 uM incubated for 16 hrs by broth microdilution method (reference value: […] ug/ml); assay type: functional
# [2] = tested on: Acinetobacter baumannii; test: Potentiation of clarithromycin-induced antibacterial activity against Acinetobacter baumannii AB5075 assessed as clarithromycin MIC at 7.5 uM incubated for 16 hrs by broth microdilution method (reference value: […] ug/ml); assay type: functional
# [3] = tested on: Acinetobacter baumannii; test: Potentiation of clarithromycin-induced antibacterial activity against Acinetobacter baumannii AB5075 assessed as fold reduction in clarithromycin MIC at 10 uM incubated for 16 hrs in presence of clarithromycin by broth microdilution method; assay type: functional
# [4] = tested on: Acinetobacter baumannii; test: Potentiation of clarithromycin-induced antibacterial activity against Acinetobacter baumannii AB5075 assessed as fold reduction in clarithromycin MIC at 7.5 uM incubated for 16 hrs in presence of clarithromycin broth microdilution method; assay type: functional
# [5] = tested on: Acinetobacter baumannii; test: Antibacterial activity against Acinetobacter baumannii AB5075 assessed as reduction in microbial growth incubated for 16 hrs by broth microdilution method; assay type: functional
# [6] = tested on: Acinetobacter baumannii; test: Potentiation of clarithromycin-induced antibacterial activity against Acinetobacter baumannii AB5075 assessed as clarithromycin MIC at 15 uM incubated for 16 hrs by broth microdilution method (reference value: […] ug/ml); assay type: functional
# [7] = tested on: Acinetobacter baumannii; test: Potentiation of clarithromycin-induced antibacterial activity against Acinetobacter baumannii AB5075 assessed as fold reduction in clarithromycin MIC at 30 uM incubated for 16 hrs in presence of clarithromycin by broth microdilution method; assay type: functional
# [8] = tested on: Acinetobacter baumannii; test: Potentiation of clarithromycin-induced antibacterial activity against Acinetobacter baumannii AB5075 assessed as clarithromycin MIC at […] incubated for 16 hrs by broth microdilution method (reference value: […] ug/ml); assay type: functional; settings: dose 30 µM
# [9] = tested on: Acinetobacter baumannii; test: Potentiation of clarithromycin-induced antibacterial activity against Acinetobacter baumannii AB5075 assessed as clarithromycin MIC at 20 uM incubated for 16 hrs by broth microdilution method (reference value: […] ug/ml); assay type: functional
# [10] = tested on: Acinetobacter baumannii; test: Potentiation of clarithromycin-induced antibacterial activity against Acinetobacter baumannii AB5075 assessed as clarithromycin MIC at 25 uM incubated for 16 hrs by broth microdilution method (reference value: […] ug/ml); assay type: functional
# [11] = tested on: Acinetobacter baumannii; test: Potentiation of clarithromycin-induced antibacterial activity against Acinetobacter baumannii AB5075 assessed as fold reduction in clarithromycin MIC at 20 uM incubated for 16 hrs in presence of clarithromycin by broth microdilution method; assay type: functional
# [12] = tested on: Acinetobacter baumannii; test: Potentiation of Colistin-induced Acinetobacter baumannii AB5075 assessed as Colistin MIC at 30 uM by broth microdilution method; assay type: functional, organism-based
# [13] = tested on: Acinetobacter baumannii; test: Potentiation of clarithromycin-induced antibacterial activity against Acinetobacter baumannii AB5075 assessed as clarithromycin MIC at 5 uM incubated for 16 hrs by broth microdilution method (reference value: […] ug/ml); assay type: functional
# [14] = tested on: Acinetobacter baumannii; test: Potentiation of clarithromycin-induced antibacterial activity against Acinetobacter baumannii AB5075 assessed as fold reduction in clarithromycin MIC at 5 uM incubated for 16 hrs in presence of clarithromycin by broth microdilution method; assay type: functional
SMILES,MIC [1],MIC [5] [µM],fold change (FC) [7],MIC [9],further results
Cl.Nc1nc(-c2ccc(NC(=O)c3ccc(C(F)(F)F)c(Cl)c3)cc2F)c[nH]1,8 µg/mL,50,–,–,MIC [2]: 16 µg/mL; fold change (FC) [3]: 4; fold change (FC) [4]: 2; MIC [6]: 0.25 µg/mL
Cl.Nc1nc(-c2ccc(NC(=O)c3cc(Cl)cc(Cl)c3)c(Cl)c2)c[nH]1,–,> 200,2,–,MIC [8]: 8 µg/mL
Nc1nc(-c2ccc(NC(=O)c3c(Cl)cc(Cl)cc3Cl)cc2)c[nH]1,32 µM,100,–,16 µM,MIC [10]: 8 µM
Nc1nc(-c2ccc(NC(=O)c3cc(F)c(F)c(F)c3)cc2)c[nH]1,32 µM,100,–,8 µM,–
Nc1ncc(-c2ccc(NC(=O)c3ccc(I)cc3)cc2)[nH]1,–,≥ 200,–,–,–
Cl.Nc1ncc(-c2ccc(NC(=O)c3ccc(Cl)c(Cl)c3)cc2)[nH]1,4 µM,100,64,0.5 µM,–
Nc1nc(-c2ccc(NC(=O)c3ccc(Cl)cc3)cc2)c[nH]1,16 µM,≥ 200,–,4 µM,–
Cl.Nc1nc(-c2ccc(NC(=O)c3ccc(Cl)c(C(F)(F)F)c3)cc2F)c[nH]1,2 µg/mL,50,–,–,MIC [2]: 8 µg/mL; fold change (FC) [3]: 16; fold change (FC) [4]: 4; MIC [6]: 0.25 µg/mL
Nc1nc(-c2ccc(NC(=O)c3cccc(F)c3)cc2)c[nH]1,–,≥ 200,–,–,–
Cl.Nc1ncc(-c2ccc(NC(=O)c3cccc(Cl)c3Cl)cc2)[nH]1,–,≥ 200,4,–,–
Cc1cc(-c2c[nH]c(N)n2)ccc1NC(=O)c1cc(Cl)cc(Cl)c1.Cl,16 µg/mL,> 200,64,1 µg/mL,fold change (FC) [3]: 2; fold change (FC) [11]: 32
Nc1nc(-c2ccc(NC(=O)c3ccccc3)cc2)c[nH]1,–,≥ 200,–,–,–
Nc1ncc(-c2ccc(NC(=O)c3ccc(Br)cc3F)cc2)[nH]1,32 µM,≥ 200,–,16 µM,Activity [12]: inactive
Cl.Nc1ncc(-c2ccc(NC(=O)c3cc(F)cc(F)c3)cc2)[nH]1,–,≥ 200,8,–,MIC [8]: 4 µg/mL
Cl.Nc1nc(-c2ccc(NC(=O)c3cc(C(F)(F)F)cc(C(F)(F)F)c3)cc2)c[nH]1,–,50,–,–,MIC [6]: 8 µg/mL
Cl.Nc1nc(-c2ccc(NC(=O)c3cc(Cl)cc(Cl)c3)cc2F)c[nH]1,0.5 µg/mL,> 200,128,0.25 µg/mL,MIC [13]: 8 µg/mL; MIC [2]: 4 µg/mL; fold change (FC) [3]: 64; fold change (FC) [14]: 4; fold change (FC) [4]: 8; MIC [8]: 0.5 µg/mL
Nc1ncc(-c2ccc(NC(=O)c3cc(I)c(I)c(I)c3)cc2)[nH]1,–,≥ 200,–,–,–
Nc1nc(-c2ccc(NC(=O)c3ccc(Cl)c(C(F)(F)F)c3)cc2)c[nH]1,2 µM,100,–,–,–
Cl.Nc1nc(-c2c(F)cc(NC(=O)c3cc(Cl)cc(Cl)c3)cc2F)c[nH]1,–,–,–,8 µg/mL,fold change (FC) [3]: 2; MIC [8]: 4 µg/mL

SMILES,MIC [1],MIC [5] [µM],fold change (FC) [7],MIC [9],further results
Cc1ccc(C(=O)Nc2ccc(-c3c[nH]c(N)n3)cc2)cc1F,1 µM,50,–,–,MIC [13]: 16 µM
Nc1nc(-c2ccc(NC(=O)c3c(F)c(F)c(F)c(F)c3F)cc2)c[nH]1,–,≥ 200,–,–,–
Cc1cc(C)cc(C(=O)Nc2ccc(-c3c[nH]c(N)n3)cc2)c1.Cl,–,≥ 200,–,–,MIC [8]: 2 µg/mL; Activity [12]: inactive
Nc1ncc(-c2ccc(NC(=O)c3cccc(I)c3)cc2)[nH]1,–,≥ 200,–,–,–
Nc1nc(-c2ccc(NC(=O)c3ccc(F)cc3)cc2)c[nH]1,–,≥ 200,–,–,–
Cc1ccc(C(=O)Nc2ccc(-c3c[nH]c(N)n3)cc2)cc1Cl,–,25,–,–,MIC [13]: 16 µM
Cl.Nc1ncc(-c2ccc(NC(=O)c3ccc(Cl)cc3Cl)cc2)[nH]1,–,≥ 200,8,–,–
Cl.Nc1nc(-c2ccc(NC(=O)c3cc(Cl)cc(Cl)c3)cc2Cl)c[nH]1,8 µg/mL,> 200,64,0.5 µg/mL,fold change (FC) [3]: 4; fold change (FC) [11]: 64; MIC [8]: 0.5 µg/mL
Cl.Nc1nc(-c2ccc(NC(=O)c3cc(Cl)cc(Cl)c3)c(F)c2)c[nH]1,–,> 200,4,–,MIC [8]: 16 µg/mL
Cl.Nc1nc(-c2ccc(NC(=O)Nc3cc(Cl)cc(Cl)c3)cc2)c[nH]1,–,25,–,–,MIC [13]: 8 µg/mL; MIC [2]: 0.5 µg/mL; fold change (FC) [14]: 4; fold change (FC) [4]: 64
Nc1nc(-c2ccc(NC(=O)c3ccc(Br)cc3)cc2)c[nH]1,–,≥ 200,–,–,Activity [12]: inactive
Cl.Nc1nc(-c2ccc(NC(=O)Nc3ccc(Cl)c(Cl)c3)cc2)c[nH]1,0.25 µg/mL,100,>=512,0.0625 µg/mL,MIC [13]: 8 µg/mL; MIC [2]: 2 µg/mL; fold change (FC) [11]: >=512; fold change (FC) [14]: 4; fold change (FC) [4]: 16; MIC [8]: 0.0625 µg/mL; MIC [6]: 0.125 µg/mL
Nc1nc(-c2ccc(NC(=O)c3cccc(Cl)c3)cc2)c[nH]1,16 µM,≥ 200,–,4 µM,–
Cl.Nc1nc(-c2ccc(NC(=O)c3cc(Br)cc(Br)c3)cc2F)c[nH]1,16 µg/mL,> 200,16,8 µg/mL,fold change (FC) [3]: 2; fold change (FC) [11]: 4; MIC [8]: 2 µg/mL
Cc1cc(NC(=O)c2cc(Cl)cc(Cl)c2)ccc1-c1c[nH]c(N)n1.Cl,8 µg/mL,> 200,64,0.5 µg/mL,fold change (FC) [3]: 4; fold change (FC) [11]: 64; MIC [8]: 0.5 µg/mL
Nc1nc(-c2ccc(NC(=O)c3ccc(C(F)(F)F)cc3)cc2)c[nH]1,–,≥ 200,–,–,–
Nc1nc(-c2ccc(NC(=O)c3cc(Cl)c(Br)c(Cl)c3)cc2)c[nH]1,0.25 µM,≥ 200,–,0.25 µM,–
COc1cc(-c2c[nH]c(N)n2)ccc1NC(=O)c1cc(Cl)cc(Cl)c1.Cl,16 µg/mL,100,64,4 µg/mL,fold change (FC) [3]: 2; fold change (FC) [11]: 8; MIC [8]: 0.5 µg/mL
Nc1nc(-c2ccc(NC(=O)c3cccc(Br)c3)cc2)c[nH]1,–,≥ 200,–,–,–

# From ChEMBL document CHEMBL4725412, “Augmenting the Activity of Macrolide Adjuvants against Acinetobacter baumannii” (2020)
